Where a chain is given by its changes, count along the chain named. “And” between values parts separate entries of the source, which are not always exact repeats. Identical values can stand only once. “Also recorded” adds a separate entry of the source.
Experiments:
[1] = target: T1, MBP-CASP2(32–165), human caspase-2 pro-domain (Homo sapiens, UniProt P42575); assay: MicroScale Thermophoresis binding to MBP-fused caspase-2 pro-domain; details: MST, 25°C, PBST buffer; means ± s.d. from two determinations; read-out: KD (binding constant)
T1 construct: cDNAs encoding BID and caspase-2 pro-domain (residues 32–165) were constructed into modified pET vectors; made in house; host or cells: E. coli BL21 (DE3)
T1 sequence (P42575 32-165): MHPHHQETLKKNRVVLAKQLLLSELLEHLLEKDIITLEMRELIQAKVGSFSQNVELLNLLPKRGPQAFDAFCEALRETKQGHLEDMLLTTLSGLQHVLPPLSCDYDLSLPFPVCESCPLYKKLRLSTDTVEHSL
Source text: The above results prompted us to reason whether HUHS015-36 could directly target caspase-2 for activation without the requirement of any other mediator. To directly test this hypothesis, we tried to obtain purified caspase-2 protein. The preparation of full-length caspase-2 protein is known to be technically challenging. Meanwhile, the CARD domain of a caspase often plays the role in sensing upstream signals, as exemplified by the CARD of caspase-2 that is recruited by RAIDD through the CARD–CARD interaction for assembling the PIDDosome. […]
Figure 4. […] (A) The direct binding between HUHS015-36 and MBP-fused human caspase-2 pro-domain was detected by microscale thermophoresis (MST). […] The calculated dissociation constant (KD) is expressed as means ± s.d. from two determinations. […] ATP-based cell viability in panels (C–E) is expressed as mean ± s.d. from three technical replicates. […] TEXT PRINTED IN THE PICTURE: (A) HUHS015-36: MBP-CASP2(32–165) vs. HUHS015-36: KD (μmol/L): 22.05 ± 6.151; MBP vs. HUHS015-36: KD (μmol/L): Not detected
MicroScale thermophoresis (MST) experiments were carried out at 25°C in the PBST Buffer (PBS with 0.05%, v/v Tween 20) by using a Monolith 2020 (TNG) (MM-208). […] The temperature-induced changes in fluorescence intensity of each sample in the capillary thermophoresis tubes were recorded by the Monolith instrument. […]

[2] = target: T2, MBP-CASP2(32-165)-L150P/Y151H (Homo sapiens, UniProt P42575, L150P/Y151H); assay: MicroScale Thermophoresis binding to L150P/Y151H mutant pro-domain; details: MST, L150P/Y151H double mutant
T2 construct: cDNAs encoding BID and caspase-2 pro-domain (residues 32–165) were constructed into modified pET vectors; made in house; host or cells: E. coli BL21 (DE3)
T2 sequence (P42575 32-165 L150P/Y151H): T1 sequence (P42575 32-165) with L119P, Y120H
Source text: The contrasting responses of the two caspases to HUHS015 might result from sequence differences in the interdomain linker in the pro-domain. […] However, replacing L150 and Y151 in human caspase-2 with mouse P150 and H151, respectively, abolished HUHS015-induced caspase-2 activation as well as the cell death response (Fig. 4D). […] The importance of L150/Y151 for human caspase-2 activation by HUHS015 indicates these residues or the associated structure are likely involved in binding to the compound agonist.
MicroScale thermophoresis (MST) experiments were carried out at 25°C in the PBST Buffer (PBS with 0.05%, v/v Tween 20) by using a Monolith 2020 (TNG) (MM-208). […] The temperature-induced changes in fluorescence intensity of each sample in the capillary thermophoresis tubes were recorded by the Monolith instrument. The data were analyzed using the program provided by the manufacturer. The binding constant (KD) was calculated directly from the fitting.
Relative fluorescence (%) […]
(A) HUHS015-36 activates caspase-2 independently of PIDDosome. […] A TP-based cell viability is expressed as mean±s.d. from three technical replicates.
Immunoblotting detecting caspase-2 and BID processing is shown. […] A TP-based cell viability is expressed as mean±s.d. from three technical replicates. […]

For `Cc1cccc2nc(-n3nc4c(c3O)CCCC4)[nH]c12` [HUHS015-36], the Kd [1] was ~22 µM and 22.1 µM and the KD [2] was “Not detected; also recorded: failed to detect confident binding”.

— PMC11637483, “Dissecting caspase-2-mediated cell death: from intrinsic PIDDosome activation to chemical modulation” (Protein & Cell, 2024)
